US20230159587A1, “PHARMACEUTICAL COMPOSITION FOR PREVENTING OR TREATING CANCER” (L-BASE CO., LTD., priority 2021, published 2023)
Residues, ends and D or L forms follow the SMILES beside them. No end group written: not given here. *: point of attachment. Benzoyl(3-Ph) = O=C(c1cccc(-c2ccccc2)c1)*; Benzoyl(4-Ph) = O=C(c1ccc(-c2ccccc2)cc1)*; Benzoyl(2-Ph) = O=C(c1ccccc1-c1ccccc1)*; Benzoyl(4-OMe) = COc1ccc(C(=O)*)cc1; 2Naphthoyl = O=C(c1ccc2ccccc2c1)*; Bz = O=C(c1ccccc1)*

Key:
[1] = tested on: lung cancer cell line H1299; test: CTG assay, cell viability suppression in lung cancer cell line H1299; format: cell-based; conditions: H1299, 100 μM, 48 hours
Procedure: (§1) After 48 hours, a CellTiter-Glo® (Promega Co., USA) reagent was mixed in the same amount as the cell culture medium and allowed to react in an orbital shaker for 2 minutes. After reaction at room temperature for 10 minutes, the luminescence signal was measured using a luminometer (GloMax®, Promega).

[2] = tested on: breast cancer cell line MDA-MB-231; test: CTG assay, activity of breast cancer cells MDA-MB-231 (amount of ATP); format: cell-based; conditions: MDA-MB-231, 100 μM, 48 hours
Procedure: as §1

[3] = tested on: blood cancer cell line Jurkat clone E6-1; test: MTT assay, proliferation suppression in blood cancer cell line Jurkat clone E6-1; format: cell-based; conditions: Jurkat clone E6-1, 10 μM, 48 hours
Procedure: (§2) After 72 hours, 10 μl of a CellTiter-96® (Promega Co., USA) reagent was added to each well and allowed to react at 5% CO2 and 37° C. After 3 hours, absorbance was measured at 490 nm using a spectrophotometer (SPECTROstar^Nano, BMG).
As the blood cancer cell line, Jurkat clone E6-1 was used.
Jurkat clone E6-1 was treated with 4-PhPh-[…], Ac-[…], 3-PhPh-[…], 4-MeOPh-[…], 2-PhPh-[…], Ph-[…], and Naphthyl-[…] at a concentration of 10 μM, respectively, and cell proliferation suppression effects were compared after 48 hours.

[4] = tested on: pancreatic cancer cell line CFPAC-1; test: MTT assay, cell viability suppression in pancreatic cancer cell line CFPAC-1; format: cell-based; conditions: CFPAC-1, 10 μM, 72 hours
Procedure: as §2

[5] = tested on: colorectal cancer cell line HT29; test: Cell proliferation suppression in colorectal cancer cell line HT29; format: cell-based; conditions: HT29, 50 μM, 72 hours
Procedure: as §1, §2

in vitro = conditions: human
[6] = tested on: lung cancer cell line H1975; test: CTG assay, cell viability suppression in lung cancer cell line H1975; format: cell-based; conditions: H1975, 10 μM, 72 hours
Procedure: as §1

[7] = tested on: lung cancer cell line H820; test: Cell viability suppression in lung cancer (papillary adenocarcinoma) cell line H820; format: cell-based; conditions: H820, 10 μM, 72 hours
Procedure: as §1, §2

[8] = tested on: breast cancer cell line HCC1937; test: MTT assay, proliferation suppression in breast cancer cell line HCC1937; format: cell-based; conditions: HCC1937, 100 μM, 72 hours
Procedure: as §2
HCC1937 was used as the breast cancer cell line.
The HCC1937 cell line was treated with Ac-[…], 3-PhPh-[…], 4-MeOPh-[…], 2-PhPh-[…], Ph-[…], and Naphthyl-[…] at a concentration of 100 μM, respectively, and cell proliferation suppression effects were compared after 72 hours.

[9] = tested on: lung cancer cell line H820 tumors; test: Tumor growth suppression, nude mice inoculated with lung cancer cell line H820; format: in vivo; conditions: H820 in nude mice, 10 mpk, tail vein, 5 times at 3-day intervals and 5 times at 2-day intervals
Procedure: 200 μl of H820 cells were inoculated once by subcutaneous injection into the flanks of mice at a concentration of 5×10^6 cells/mouse at 1:1 with Matrigel. After it was confirmed that the volume of a tumor mass formed after the inoculation reached 70 to 130 mm^3, random group separation was performed. […]

[10] = tested on: H1975 lung cancer cells tumors; test: Tumor growth suppression, nude mice inoculated with H1975 lung cancer cells; format: in vivo; conditions: H1975 in nude mice, 10 mpk for 14 days
Procedure: 150 μl of H1975 cells were inoculated once by subcutaneous injection into the flanks of mice at a concentration of 4×10^6 cells/mouse. After it was confirmed that the volume of a tumor mass formed after the inoculation reached 70 to 130 mm^3, random group separation was performed. A test material was injected to the tail vein 5 times at 3-day intervals and 5 times at 2-day intervals.

[11] = tested on: breast cancer cell line HCC1806 tumors; test: Tumor growth suppression, mice inoculated with breast cancer cell line HCC1806; format: in vivo, immunodeficient mice; conditions: HCC1806, 10 mpk tail vein, 7 times at 2-day intervals; for tumor volume on day 15 (average): 2 days after last administration; for tumor growth suppression compared to the tumor volume of the AQTGTGKT group: day 15
Procedure: (§3) 200 μl of a breast cancer cell line, HCC1806 cells, were inoculated once by subcutaneous injection into the flanks of mice at a concentration of 5×10^6 cells/mouse. After it was confirmed that the volume of a tumor mass formed after the inoculation reached 70 to 130 mm^3, random group separation was performed. A test material was injected to the tail vein 7 times at 2-day intervals at a concentration of 10 mpk, and the start date of administration was set as day 1. The tumor volume was calculated twice a week by measuring the width and length and at the same time, the mouse body weight was measured.

[12] = tested on: CT26 cells induced to express CAGE gene; test: Tumor growth suppression, mice inoculated with CT26 cells induced to express CAGE gene; format: in vivo; conditions: CT26 expressing CAGE, 10 mpk tail vein, 7 times at 2-day intervals; for tumor growth suppression compared to the AQTGTGKT administration group: day 14; for tumor volume on day 14 (average): day after 7th administration
Procedure: as §3, with “CT26” for “a breast cancer cell line, HCC1806”, “cells, which were induced to express CAGE gene,” for “cells,”, “1×10^6” for “5×10^6”, “70” for “70 to 130”

[13] = Stability in human blood (residual amount over time)

Compound: C[C@H](NC(=O)c1ccc(-c2ccccc2)cc1)C(=O)N[C@@H](CCC(N)=O)C(=O)N[C@H](C(=O)NCC(=O)N[C@H](C(=O)NCC(=O)N[C@@H](CCCCN)C(=O)N[C@H](C(=O)O)[C@@H](C)O)[C@@H](C)O)[C@@H](C)O ({Benzoyl(4-Ph)}-AQTGTGKT-OH)
- cell viability suppression effect compared to the control (AQTGTGKT) [1]: about 10%
- reduction of activity of cells compared to the control (AQTGTGKT) [2]: about 30%
- suppression of proliferation of cells compared to the control (AQTGTGKT) [3]: about 4.8%
- cell viability suppression effect compared to the control (AQTGTGKT) [4]: about 12%
- cell proliferation suppression effect compared to the control (AQTGTGKT) [5]: about 8%
- half-life at 10 μM (in vitro): 47 to 105 min

Compound: C[C@H](NC(=O)c1cccc(-c2ccccc2)c1)C(=O)N[C@@H](CCC(N)=O)C(=O)N[C@H](C(=O)NCC(=O)N[C@H](C(=O)NCC(=O)N[C@@H](CCCCN)C(=O)N[C@H](C(=O)O)[C@@H](C)O)[C@@H](C)O)[C@@H](C)O ({Benzoyl(3-Ph)}-AQTGTGKT-OH)
- cell viability suppression effect compared to the control (AQTGTGKT) [1]: 15%
- cell viability suppression effect compared to the control (AQTGTGKT) [6]: 33%
- cell viability suppression effect compared to the control (AQTGTGKT) [7]: about 12%
- suppression of proliferation of cells compared to the control (AQTGTGKT) [8]: ~17.1%
- suppression of proliferation of cells compared to the control (AQTGTGKT) [3]: ~6.4%
- cell viability suppression effect compared to the control (AQTGTGKT) [4]: 2%
- cell proliferation suppression effect compared to the control (AQTGTGKT) [5]: 59%
- tumor growth suppression effect compared to the control (AQTGTGKT) [9]: about 16.5%
- tumor growth reduction compared to the control (AQTGTGKT) [10]: about 16.5%
- tumor volume on day 15 (average) [11]: 944.70 mm^3
- tumor growth suppression compared to the tumor volume of the AQTGTGKT group [11]: about 49.86%
- tumor growth suppression compared to the AQTGTGKT administration group [12]: about 65.79%
- tumor volume on day 14 (average) [12]: 880.35 mm^3
- half-life at 10 μM (in vitro): 47 to 105 min

Compound: C[C@H](NC(=O)c1ccccc1)C(=O)N[C@@H](CCC(N)=O)C(=O)N[C@H](C(=O)NCC(=O)N[C@H](C(=O)NCC(=O)N[C@@H](CCCCN)C(=O)N[C@H](C(=O)O)[C@@H](C)O)[C@@H](C)O)[C@@H](C)O (Bz-AQTGTGKT-OH)
- cell viability suppression effect compared to the control (AQTGTGKT) [1]: 18%
- suppression of proliferation of cells compared to the control (AQTGTGKT) [8]: ~13.6%
- suppression of proliferation of cells compared to the control (AQTGTGKT) [3]: ~10.2%
- cell viability suppression effect compared to the control (AQTGTGKT) [4]: 3%
- cell proliferation suppression effect compared to the control (AQTGTGKT) [5]: 40%
- tumor growth suppression effect compared to the control (AQTGTGKT) [9]: 20%
- tumor volume on day 15 (average) [11]: 1133.80 mm^3
- tumor growth suppression compared to the tumor volume of the AQTGTGKT group [11]: ~39.82%
- half-life at 10 μM [13]: 47 to 105 min

Compound: AQTGTGKT [alanine-glutamine-threonine-glycine-threonine-glycine-lysine-threonine, reference compound]
- tumor volume on day 15 (average) [11]: 1884.17 mm^3
- tumor volume on day 14 (average) [12]: 2573.07 mm^3
- half-life at 10 μM [13]: < 1 min

Compound: C[C@H](NC(=O)c1ccccc1-c1ccccc1)C(=O)N[C@@H](CCC(N)=O)C(=O)N[C@H](C(=O)NCC(=O)N[C@H](C(=O)NCC(=O)N[C@@H](CCCCN)C(=O)N[C@H](C(=O)O)[C@@H](C)O)[C@@H](C)O)[C@@H](C)O ({Benzoyl(2-Ph)}-AQTGTGKT-OH)
- cell viability suppression effect compared to the control (AQTGTGKT) [1]: 20%
- cell viability suppression effect compared to the control (AQTGTGKT) [6]: 3%
- suppression of proliferation of cells compared to the control (AQTGTGKT) [8]: ~15.9%
- suppression of proliferation of cells compared to the control (AQTGTGKT) [3]: ~6.7%
- cell proliferation suppression effect compared to the control (AQTGTGKT) [5]: 7%
- tumor growth suppression effect compared to the control (AQTGTGKT) [9]: 27%
- half-life at 10 μM (in vitro): 47 to 105 min

Compound: C[C@H](NC(=O)c1ccc2ccccc2c1)C(=O)N[C@@H](CCC(N)=O)C(=O)N[C@H](C(=O)NCC(=O)N[C@H](C(=O)NCC(=O)N[C@@H](CCCCN)C(=O)N[C@H](C(=O)O)[C@@H](C)O)[C@@H](C)O)[C@@H](C)O (2Naphthoyl-AQTGTGKT-OH)
- cell viability suppression effect compared to the control (AQTGTGKT) [1]: 14%
- suppression of proliferation of cells compared to the control (AQTGTGKT) [8]: ~9.5%
- suppression of proliferation of cells compared to the control (AQTGTGKT) [3]: ~10.4%
- cell viability suppression effect compared to the control (AQTGTGKT) [4]: 3%
- cell proliferation suppression effect compared to the control (AQTGTGKT) [5]: 58%
- tumor growth suppression effect compared to the control (AQTGTGKT) [9]: 26%
- tumor growth suppression compared to the AQTGTGKT administration group [12]: about 62.04%
- tumor volume on day 14 (average) [12]: 880.35 mm^3
- half-life at 10 μM (in vitro): 47 to 105 min

Compound: COc1ccc(C(=O)N[C@@H](C)C(=O)N[C@@H](CCC(N)=O)C(=O)N[C@H](C(=O)NCC(=O)N[C@H](C(=O)NCC(=O)N[C@@H](CCCCN)C(=O)N[C@H](C(=O)O)[C@@H](C)O)[C@@H](C)O)[C@@H](C)O)cc1 ({Benzoyl(4-OMe)}-AQTGTGKT-OH)
- cell viability suppression effect compared to the control (AQTGTGKT) [1]: 12%
- cell viability suppression effect compared to the control (AQTGTGKT) [6]: 4%
- cell viability suppression effect compared to the control (AQTGTGKT) [7]: 10%
- suppression of proliferation of cells compared to the control (AQTGTGKT) [8]: ~14.3%
- suppression of proliferation of cells compared to the control (AQTGTGKT) [3]: ~4%
- cell viability suppression effect compared to the control (AQTGTGKT) [4]: 6%
- cell proliferation suppression effect compared to the control (AQTGTGKT) [5]: 48%
- tumor volume on day 15 (average) [11]: 812.69 mm^3
- tumor growth suppression compared to the tumor volume of the AQTGTGKT group [11]: ~56.86%
- half-life at 10 μM (in vitro): 47 to 105 min

Compound: Ac-AQTGTGKT
- cell viability suppression effect compared to the control (AQTGTGKT) [1]: 4.2%
- cell viability suppression effect compared to the control (AQTGTGKT) [6]: about 16%
- suppression of proliferation of cells compared to the control (AQTGTGKT) [8]: about 11.1%
- suppression of proliferation of cells compared to the control (AQTGTGKT) [3]: ~7.9%
- cell proliferation suppression effect compared to the control (AQTGTGKT) [5]: 58%
